In paper PMC3914206:

Assays:
Assay type in all cases: binding
Design in all cases: KINOMEscan: ABL1(F317L)-phosphorylated / KINOMEscan: ABL1(H396P)-nonphosphorylated / KINOMEscan: ABL1(H396P)-phosphorylated / KINOMEscan: ABL1(M351T)-phosphorylated / KINOMEscan: ABL1(T315I)-phosphorylated / KINOMEscan: ABL1-nonphosphorylated / KINOMEscan: ABL1-phosphorylated / KINOMEscan: ACVR2A / KINOMEscan: ACVR2B / KINOMEscan: ADCK3 / KINOMEscan: ADCK4 / KINOMEscan: AKT1 / KINOMEscan: AKT3 / KINOMEscan: ALK / KINOMEscan: ARK5 / KINOMEscan: AURKA / KINOMEscan: AURKC / KINOMEscan: BIKE / KINOMEscan: BMPR1A / KINOMEscan: BMPR1B / KINOMEscan: BMX / KINOMEscan: BRK / KINOMEscan: BRSK1 / KINOMEscan: BRSK2 / KINOMEscan: CAMK1 / KINOMEscan: CAMK1D / KINOMEscan: CAMK1G / KINOMEscan: CAMK2A / KINOMEscan: CAMK2B / KINOMEscan: AAK1 / KINOMEscan: CAMK2D / KINOMEscan: CAMK2G / KINOMEscan: ABL1(F317I)-nonphosphorylated / KINOMEscan: ABL1(F317I)-phosphorylated / KINOMEscan: ABL1(F317L)-nonphosphorylated: unit: % Ctrl
Settings in all cases: Compound Concentration 10 µM
[1] = molecular target: T1, panel of 442 kinases (Homo sapiens, UniProt O75676)
T1 construct: purchased KINOMEscan
T1 sequence (O75676 whole entry): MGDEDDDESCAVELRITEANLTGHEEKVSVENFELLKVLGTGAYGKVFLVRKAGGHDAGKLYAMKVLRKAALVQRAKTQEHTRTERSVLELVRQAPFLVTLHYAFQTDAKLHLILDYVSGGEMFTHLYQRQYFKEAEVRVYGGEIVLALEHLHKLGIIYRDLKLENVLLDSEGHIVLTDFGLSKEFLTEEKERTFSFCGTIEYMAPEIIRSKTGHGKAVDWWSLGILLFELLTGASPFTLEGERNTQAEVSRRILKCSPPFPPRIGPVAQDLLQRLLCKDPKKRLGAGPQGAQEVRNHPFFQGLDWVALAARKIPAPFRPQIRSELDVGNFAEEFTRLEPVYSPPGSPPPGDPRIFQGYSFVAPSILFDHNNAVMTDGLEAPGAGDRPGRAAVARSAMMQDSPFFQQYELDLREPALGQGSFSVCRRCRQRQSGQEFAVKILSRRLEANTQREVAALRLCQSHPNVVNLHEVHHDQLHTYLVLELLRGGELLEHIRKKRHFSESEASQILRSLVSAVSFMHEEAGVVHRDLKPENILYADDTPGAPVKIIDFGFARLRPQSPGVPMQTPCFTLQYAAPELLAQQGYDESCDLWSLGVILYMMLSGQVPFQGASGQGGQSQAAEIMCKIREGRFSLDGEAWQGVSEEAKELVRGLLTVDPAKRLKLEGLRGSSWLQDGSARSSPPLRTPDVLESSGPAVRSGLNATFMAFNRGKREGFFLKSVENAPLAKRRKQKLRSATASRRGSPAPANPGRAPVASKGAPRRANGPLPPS
Excerpt: (§1) We assessed the selectivity of members of this scaffold using the KINOMEscan methodology across a near comprehensive panel of 442 kinases [[18,27]].

[2] = molecular target: T2, panel of 442 kinases (Homo sapiens, UniProt P42336, C420R)
T2 construct: purchased KINOMEscan
T2 sequence (P42336 whole entry C420R): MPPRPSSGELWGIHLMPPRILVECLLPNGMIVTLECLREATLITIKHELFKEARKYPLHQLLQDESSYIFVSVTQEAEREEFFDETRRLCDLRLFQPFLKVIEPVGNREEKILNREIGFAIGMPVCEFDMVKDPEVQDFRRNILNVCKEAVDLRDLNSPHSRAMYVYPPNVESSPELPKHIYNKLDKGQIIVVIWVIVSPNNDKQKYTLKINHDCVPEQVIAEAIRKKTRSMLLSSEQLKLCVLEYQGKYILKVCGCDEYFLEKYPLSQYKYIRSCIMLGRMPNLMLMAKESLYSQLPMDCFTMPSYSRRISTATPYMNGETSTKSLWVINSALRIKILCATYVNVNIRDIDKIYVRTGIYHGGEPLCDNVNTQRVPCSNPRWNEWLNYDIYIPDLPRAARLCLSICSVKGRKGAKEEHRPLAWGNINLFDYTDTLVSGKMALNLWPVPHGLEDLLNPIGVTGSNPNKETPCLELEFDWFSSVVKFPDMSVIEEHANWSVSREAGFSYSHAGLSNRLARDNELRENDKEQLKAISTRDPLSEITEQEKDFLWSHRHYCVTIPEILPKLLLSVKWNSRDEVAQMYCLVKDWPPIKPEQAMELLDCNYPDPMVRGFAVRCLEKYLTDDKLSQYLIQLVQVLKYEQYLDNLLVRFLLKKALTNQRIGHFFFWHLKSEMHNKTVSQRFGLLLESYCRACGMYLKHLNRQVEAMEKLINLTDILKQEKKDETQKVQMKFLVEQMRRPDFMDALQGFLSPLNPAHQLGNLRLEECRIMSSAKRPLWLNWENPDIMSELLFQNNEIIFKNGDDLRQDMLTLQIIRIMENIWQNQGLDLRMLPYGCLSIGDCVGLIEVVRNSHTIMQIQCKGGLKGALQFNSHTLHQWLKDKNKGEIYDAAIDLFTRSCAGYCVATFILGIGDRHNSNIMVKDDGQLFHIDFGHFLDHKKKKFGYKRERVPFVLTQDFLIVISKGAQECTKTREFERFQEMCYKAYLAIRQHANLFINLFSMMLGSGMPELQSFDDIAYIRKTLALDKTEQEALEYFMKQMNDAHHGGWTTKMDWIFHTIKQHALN
Excerpt: as §1

[3] = molecular target: T3, panel of 442 kinases (Homo sapiens, UniProt P42336, E545A)
T3 construct: purchased KINOMEscan
T3 sequence (P42336 whole entry E545A): as the sequence (P42336 whole entry C420R) above, with R420C, E545A counted along it
Excerpt: as §1

[4] = molecular target: T4, panel of 442 kinases (Homo sapiens, UniProt Q13882)
T4 construct: purchased KINOMEscan
T4 sequence (Q13882 whole entry): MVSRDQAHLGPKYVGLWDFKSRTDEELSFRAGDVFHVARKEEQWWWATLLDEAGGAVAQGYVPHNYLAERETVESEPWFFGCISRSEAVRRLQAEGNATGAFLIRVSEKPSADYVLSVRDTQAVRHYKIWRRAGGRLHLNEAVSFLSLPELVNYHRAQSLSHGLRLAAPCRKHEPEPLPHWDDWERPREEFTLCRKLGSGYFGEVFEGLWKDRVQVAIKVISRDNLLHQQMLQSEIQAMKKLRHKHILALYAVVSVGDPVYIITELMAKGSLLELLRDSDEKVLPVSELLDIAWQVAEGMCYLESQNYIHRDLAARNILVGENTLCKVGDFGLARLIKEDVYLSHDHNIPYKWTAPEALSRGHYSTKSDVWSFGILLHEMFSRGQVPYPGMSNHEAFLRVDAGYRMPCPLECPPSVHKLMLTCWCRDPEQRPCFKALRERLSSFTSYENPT
Excerpt: as §1

Structure (SMILES) | KINOMEscan: RPS6KA4(Kin.Dom.1-N-terminal) [1] | KINOMEscan: RPS6KA4(Kin.Dom.2-C-terminal) [1] | KINOMEscan: PIK3CA(C420R) [2] | KINOMEscan: PIK3CA(E545A) [3] | KINOMEscan: BRK [4]
COc1cc(C(=O)N2CCC(N3CCN(C)CC3)CC2)ccc1Nc1ncc2c(n1)N(C)c1ccccc1C(=O)N2C [15 (LRRK2-IN-1)] | 100 | 46 | 89 | 98 | 58
COc1cc(C(=O)N2CCC(N3CCN(C)CC3)CC2)ccc1Nc1ncc2c(n1)N1CCc3cccc(c31)C(=O)N2C [Compound 24] | – | 0.65 | – | 68 | 54
COc1cc(C(=O)N2CCC(N3CCN(C)CC3)CC2)ccc1Nc1ncc2c(n1)N(C1CCCC1)c1ccccc1C(=O)N2C [Compound 25, 11-cyclopentyl-2-((2-methoxy-4-(4-(4-methylpiperazin-1-yl)piperidine-1-carbonyl)phenyl)amino)-5-methyl-5H-benzo[e]pyrimido[5,4-b][1,4]diazepin-6(11H)-one] | 100 | 100 | 100 | 85 | 29
CCOc1cc(C(=O)N2CCC(N3CCN(C)CC3)CC2)ccc1Nc1ncc2c(n1)N(C1CCCC1)c1ccccc1C(=O)N2C [Compound 26] | 100 | 100 | 99 | 91 | 62
